Measured values reported in patent US5399565A, “Pyrazolidinone CCK and gastrin antagonists and pharmaceutical formulations therof” (priority 1993, dated 1995).

Conditions: 2:1 dmf:h2o

titration pKa: 4.8
Substance: 1-[(4-Bromophenyl)aminocarbonyl]-2-carboxymethyl-4,5-diphenyl-3-pyrazolidinone and 1-[(4-bromophenyl)aminocarbonyl]-3-carboxymethoxy-4,5-diphenyl-2-pyrazoline [Example 12]
